We go through five compounds from patent publication US20240376094A2, “SELECTIVE BCL-XL PROTAC COMPOUNDS AND METHODS OF USE” (Les Laboratoires Servier, priority 2021, published 2024).

Assay type in all cases: cell-based
In one test the test system is COR-L105. Description: CellTiter-Glo proliferation assay, COR-L105. Conditions: Homo sapiens, COR-L105, 120 h, COR-L105, 5 days; for Emax: read-out: COR-L105 Span (max). On the procedure:
(§1) The BCL-xL degrader compounds were tested against two endogenous cancer cell lines: • COR-L105: ECACC No. 92031918 cultured in RPMI-1640+10% FBS • NCI-H1650: (ATCC No. CRL-5883 cultured in RPMI-1640+10% FBS
(§2) The ability of the BCL-xL degrader low molecular weight compounds to inhibit cell proliferation and survival was assessed using the Promega CellTiter-Glo® proliferation assay.
(§3) Cell lines were cultured in media that is optimal for their growth at 5% CO2, 37° C. in a tissue culture incubator. Prior to seeding for the proliferation assay, the cells were split at least 2 days before the assay to ensure optimal growth density. On the day of seeding, adherent cells were lifted off tissue culture flasks using 0.25% trypsin. Cell viability and cell density were determined using a cell counter (Vi-Cell XR Cell Viability Analyzer, Beckman Coulter). Cells with higher than 85% viability were seeded for the assay.
(§4) The COR-105 cell line was seeded in white, clear bottom 384-well TC treated plates (Corning cat. #3765). Cells were seeded at a density of 1,000 cells per well in 45 μL of standard growth media. Plates were incubated at 5% CO2, 37° C. overnight in a tissue culture incubator. The NCI-H1650 cell line was seeded in black, clear round bottom 384-well ultra-low attachment spheroid microplates (Corning cat. #3830). Cells were seeded at a density of 3,000 cells per well in 45 uL of standard growth media. Plates were spun in a centrifuge for 5 minutes and 1,000 RPM. Plates were incubated at 5% CO2, 37° C. for 72 hours in a tissue culture incubator.
(§5) On the day of dosing, BCL-xL degrader low molecular weight compounds were prepared at 1 OX in standard growth media. The prepared drug treatments were then added to the cells resulting in final concentrations of 0.508 nM-10 μM and a final volume of 50 μL per well. Each drug concentration was tested in quadruplets. Plates were incubated at 5% CO2, 37° C. for 5 days in a tissue culture incubator.
(§6) For COR-L105 plates, cell viability was assessed through the addition of 25 μL of CellTiter Glo® (Promega, cat #G7573), a reagent which lyses cells and measures total adenosine triphosphate (ATP) content. Plates were incubated at room temperature for 10 minutes to stabilize luminescent signals prior to reading with a luminescence reader (EnVision Multilabel Plate Reader, PerkinElmer). For NCI-H1650 plates, cell viability was assessed through the addition of 40 μL of CellTiter Glo® 3D Cell Viability Assay substrate (Promega, cat #G9681), a reagent which lyses cells and measures total adenosine triphosphate (ATP) content. Wells were mixed thoroughly and plates were incubated at room temperature for 30 minutes to stabilize luminescent signals prior to reading using a luminescence reader (EnVision Multilabel Plate Reader, PerkinElmer).
(§7) To evaluate the effect of the drug treatments, luminescent counts from wells containing untreated cells (100% viability) were used to normalize treated samples. A variable slope model was applied to fit a nonlinear regression curve to the data in GraphPad PRISM version 7.02 software. IC50 and Amax values were extrapolated from the resultant curves. The concentrations of treatment required to inhibit 50% of cell growth or survival (IC50) were calculated with representative IC50 values of the cell lines tested summarized in Table 11.
Background: In ATP-based viability assays light output follows the ATP content of the culture.

The target of a further test is T1, Bcl-xL (Homo sapiens, UniProt Q07817).
T1 construct: Measured levels of Bcl-xL protein of HCT116 cells treated with the tested compounds; host or cells: HCT116
T1 sequence (Q07817 whole entry): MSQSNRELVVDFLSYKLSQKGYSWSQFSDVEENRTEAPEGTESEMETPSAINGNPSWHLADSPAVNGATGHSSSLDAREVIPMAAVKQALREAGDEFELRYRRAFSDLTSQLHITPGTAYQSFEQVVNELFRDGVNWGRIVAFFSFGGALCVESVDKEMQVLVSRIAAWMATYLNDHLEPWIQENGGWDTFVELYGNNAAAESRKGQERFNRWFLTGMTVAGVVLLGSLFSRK
Description: HCT116 Bcl-xL degradation, capillary-based immunoassay (WES). Conditions: for remaining activity at 0.01 µM / remaining activity at 0.1 µM: HCT-116, 24 h, % of untreated cells; for remaining activity at 0.01 µM: HCT116, 10 nM; for remaining activity at 0.1 µM: HCT116, 100 nM; for DC50: HCT116, 24 h, 9-point serial dilution. In outline: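 HCT116 cells treated 24 h with compound at 10/100 nM and/or 9-point dilution (quadruplicates), then lysed. Bcl-xL measured by capillary WES immunoassay, normalized to cofilin and expressed as % of untreated cells. DC50 from four-parameter curve fit.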

A further test concerns NCI-H1650. Description: CellTiter-Glo 3D proliferation assay, NCI-H1650 spheroids. On the set-up: key to NCI-H1650 Span (Amax): —: constructs were tested and inactive. Conditions: 5 days; for IC50 / Emax: Homo sapiens, NCI-H1650, 120 h; for Emax: read-out: NCI-H1650 Span (Amax). On the procedure: as §1, §2, §3, §4, §5, §6, §7
In the next test the test system is MOLT-4 cells. Description: MOLT-4 cell viability, MTT assay. Conditions: Homo sapiens, MOLT-4, 48 h. The method, boiled down:
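MOLT-4 cells in RPMI 1640 with 10% FBS were exposed to compounds for 48 h at 9 concentrations (3.16-fold dilutions, triplicates). After 4 h with MTT and overnight SDS/HCl solubilisation, absorbance was read at 540 nm. IC50 came from four-parameter fits versus control, as the mean of ≥2 independent experiments.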
For orientation: Tetrazolium assays rely on reduction of a dye to a coloured formazan, in cell work by metabolically active cells.

In test [1] the test system is EBC-1 lung cancer cell line. In words: EBC-1 cell proliferation, CellTiter-Glo assay. The conditions noted are these: Homo sapiens, 120 h; Ebc-1 cell viability, CTG assay, 5 days of treatment; read-out: CTG 5 day Ebc1 GI50. In outline: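 EBC-1 cells seeded at 1000 per well overnight, then exposed to 10-point dilutions (0.508 nM–10 μM final) for 5 days at 37 °C, in triplicate. ATP luminescence by CellTiter-Glo, normalised to untreated wells; GI50 from four-parameter logistic fit, runs valid only with at least one doubling.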

For another test, the target named is T2, HiBiT-tagged BCL-xL (Homo sapiens, UniProt Q07817).
T2 construct: expressed in transfected cells; host or cells: NCI-H1650 (ATCC No. CRL-5883), engineered HiBiT cell line
T2 sequence (Q07817 whole entry): as above
In words: NCI-H1650 BCL-xL protein levels, Nano-Glo HiBiT Lytic Detection. Conditions: NCI-H1650 expressing HiBiT-tagged BCL-xL, overnight incubation, read-out: Bcl-xl HIBIT NCIH1650 DC50. The method, boiled down:
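NCI-H1650 cells expressing HiBiT-tagged BCL-xL (5000/well) were treated overnight at 37° C with 10 concentrations, final 0.508 nM-10 μM, in triplicate. Remaining BCL-xL measured by Nano-Glo HiBiT lytic luminescence, normalized to untreated cells; 50% values by four-parameter logistic fit.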
A general note: HiBiT is a short tag that completes a luciferase, so light tracks the accessible tagged protein.

The term IC50 denotes the concentration that gives 50% inhibition. In general, remaining activity refers to the signal under treatment as a percentage of the control signal. `Cc1ncsc1-c1ccc(CNC(=O)[C@@H]2CC(O)CN2C(=O)C(NC(=O)CCCCC(=O)N2CCN(CCOC34CC5(C)CC(C)(CC(Cn6ncc(-c7ccc(N8CCCc9c8nnc(Nc8nc%10ccccc%10s8)c9C)nc7C(=O)O)c6C)(C5)C3)C4)CC2)C(C)(C)C)cc1` (stereo in doubt) [Example 23, 6-[3-(1,3-benzothiazol-2-ylamino)-4-methyl-6,7-dihydro-5H-pyrido[2,3-c]pyridazin-8-yl]-3-[1-[[3-[2-[4-[6-[[(1S)-1-[(2S,4R)-4-hydroxy-2-[[4-(4-methylthiazol-5-yl)phenyl]methylcarbamoyl]pyrrolidine-1-carbonyl]-2,2-dimethyl-propyl]amino]-6-oxo-hexanoyl]piperazin-1-yl]ethoxy]-5,7-dimethyl-1-adamantyl]methyl]-5-methyl-pyrazol-4-yl]pyridine-2-carboxylic acid]: in the test on COR-L105, the IC50 was 183 nM and the Emax is 100%. Also, at Bcl-xL, the remaining activity at 0.01 µM turned out to be 82% and the remaining activity at 0.1 µM turned out to be 67%. Further, in the test with NCI-H1650, the IC50 was determined as 35.7 nM and the Emax is 71.4%. The compound further showed an IC50 in the test on MOLT-4 cells of 10.5 nM.

In the case of `Cc1c(Nc2nc3ccccc3s2)nnc2c1CCCN2c1nc(C(=O)O)c(CCCOc2ccc(C#CCN3CCN(C(=O)CCCCCCC(=O)NCCOCCNC(=O)COc4cccc5c4C(=O)N(C4CCC(=O)NC4=O)C5=O)CC3)cc2F)s1` (stereo not shown) [Example 25, 2-[3-(1,3-benzothiazol-2-ylamino)-4-methyl-6,7-dihydro-5H-pyrido[2,3-c]pyridazin-8-yl]-5-[3-[4-[3-[4-[8-[2-[2-[[2-[2-(2,6-dioxo-3-piperidyl)-1,3-dioxo-isoindolin-4-yl]oxyacetyl]amino]ethoxy]ethylamino]-8-oxo-octanoyl]piperazin-1-yl]prop-1-ynyl]-2-fluoro-phenoxy]propyl]thiazole-4-carboxylic acid], in the test on COR-L105, 174 nM corresponded to half-maximal inhibition (IC50) and the Emax amounted to 87.4%. For the same compound, on Bcl-xL, the DC50 was greater than 316 nM, the remaining activity at 0.01 µM stood at 59% and the remaining activity at 0.1 µM worked out at 55%. Moreover, in the test with NCI-H1650, half-maximal inhibition (IC50) was put at 38.8 nM and the Emax is 74%. In the test with MOLT-4 cells, this compound registered an IC50 of 1.09 nM.

In the test with COR-L105, `Cc1cc(N(C)c2nc(C(=O)O)c(CCCOc3ccc(C#CCN(C)CC(=O)NCCOCCNC(=O)COc4cccc5c4C(=O)N(C4CCC(=O)NC4=O)C5=O)cc3F)s2)nnc1Nc1nc2ccccc2s1` (stereo not shown) [Example 32, 2-[[6-(1,3-benzothiazol-2-ylamino)-5-methyl-pyridazin-3-yl]-methyl-amino]-5-[3-[4-[3-[[2-[2-[2-[[2-[2-(2,6-dioxo-3-piperidyl)-1,3-dioxo-isoindolin-4-yl]oxyacetyl]amino]ethoxy]ethylamino]-2-oxo-ethyl]-methyl-amino]prop-1-ynyl]-2-fluoro-phenoxy]propyl]thiazole-4-carboxylic acid] showed an IC50 greater than 10000 nM. Also, at Bcl-xL, the remaining activity at 0.01 µM came out at 83% and the remaining activity at 0.1 µM worked out at 53%. In the test with NCI-H1650, the “NCI-H1650 Span (Amax)” value is reported as “—” and the IC50 is greater than 1000 nM. In the test with MOLT-4 cells, this compound returned an IC50 of 64.2 nM.

What is called GI50 is the concentration that inhibits growth by half. `Cc1ncsc1-c1ccc(CNC(=O)[C@@H]2C[C@@H](O)CN2C(=O)[C@@H](NC(=O)CCCCC(=O)N2CCN(CC#Cc3ccc(OCCCc4sc(N5CCCc6c5nnc(Nc5nc7ccccc7s5)c6C)nc4C(=O)O)c(F)c3)CC2)C(C)(C)C)cc1` [Example 19, 2-[3-(1,3-benzothiazol-2-ylamino)-4-methyl-6,7-dihydro-5H-pyrido[2,3-c]pyridazin-8-yl]-5-[3-[2-fluoro-4-[3-[4-[6-[[(1S)-1-[(2S,4R)-4-hydroxy-2-[[4-(4-methylthiazol-5-yl)phenyl]methylcarbamoyl]pyrrolidine-1-carbonyl]-2,2-dimethyl-propyl]amino]-6-oxo-hexanoyl]piperazin-1-yl]prop-1-ynyl]phenoxy]propyl]thiazole-4-carboxylic acid]: at Bcl-xL, the remaining activity at 0.01 µM was determined as 104% and the remaining activity at 0.1 µM was found to be 88%. The same compound had an IC50 with MOLT-4 cells of 13.2 nM. The GI50 in test [1] was 25 nM. Besides, the DC50 on HiBiT-tagged BCL-xL was greater than 1670 nM.

Turning to `Cc1ncsc1-c1ccc(CNC(=O)C2C[C@@H](O)CN2C(=O)C(NC(=O)CCCCCC(=O)N2CCN(CCOC34CC5(C)CC(C)(CC(Cn6ncc(-c7ccc(N8CCCc9c8nnc(Nc8nc%10ccccc%10s8)c9C)nc7C(=O)O)c6C)(C5)C3)C4)CC2)C(C)(C)C)cc1` (stereo in doubt) [Example 22, 6-[3-(1,3-benzothiazol-2-ylamino)-4-methyl-6,7-dihydro-5H-pyrido[2,3-c]pyridazin-8-yl]-3-[1-[[3-[2-[4-[7-[[(1S)-1-[(2S,4R)-4-hydroxy-2-[[4-(4-methylthiazol-5-yl)phenyl]methylcarbamoyl]pyrrolidine-1-carbonyl]-2,2-dimethyl-propyl]amino]-7-oxo-heptanoyl]piperazin-1-yl]ethoxy]-5,7-dimethyl-1-adamantyl]methyl]-5-methyl-pyrazol-4-yl]pyridine-2-carboxylic acid], in the test on COR-L105, half-maximal inhibition (IC50) required 275 nM and the Emax was found to be 104%. Further, on Bcl-xL, the DC50 is greater than 316 nM, the remaining activity at 0.01 µM is 68% and the remaining activity at 0.1 µM amounted to 54%. Also, in the test on NCI-H1650, the IC50 is 72.8 nM and the Emax was found to be 92.6%. In addition, the IC50 with MOLT-4 cells was 4.7 nM.
